Test [1] can be described thus: Tb^3+ binding of pKID peptides by fluorescence titration (dissociation constant determination). As to conditions: for Kd: 5 mM HEPES (pH 7.8), 100 mM NaCl, read-out: Kd of peptide-Tb^3+ complex. The method, then: Fluorescence spectra were collected on a Photon Technology International fluorescence spectrometer model QM-3/2003 with a CW source and a Hamamatsu R928PMT. All experiments were conducted with an excitation wavelength of 280 nm. 6 nm excitation and emission slit widths were used unless otherwise indicated. All spectra were acquired at room temperature, collecting data every 1 nm with a scan rate of 1 nm per second. At least 3 independent binding titrations were conducted for each peptide. All spectra are uncorrected and have not been normalized, and only representative (median), non-averaged spectra are shown, unless otherwise indicated. All fluorescence experiments were conducted using a 495 nm highpass filter (model 495FG03-25 AM-53074; Andover Corporation, Andover, N.H.) on the emission monochromator.
Peptide solutions were prepared by dilution of stock solutions into 5 mM HEPES buffer (pH 7.8) with 100 mM NaCl. Spectra were acquired in 10 mm quartz fluorescence cells (Sterna). Tb^3+ titrations were conducted by dilution of a Tb^3+ solution into a peptide solution as described above. Each individual emission spectrum represents an independently prepared solution of peptide and metal. The Tb^3+ emission band at 544 nm was used to evaluate metal binding.
To determine dissociation constants for Tb^3+-peptide complexes, titrations were conducted in solutions of 5 mM HEPES (pH 7.8) and 100 mM NaCl, with 10 nm emission and excitation slit widths. All fluorescence experiments were conducted using a 495 nm highpass filter (model 495FG03-25 AM-53074; Andover Corporation, Andover, N.H.) on the emission monochromator. All TbCl3 solutions were standardized by titration with a standard solution of EDTA (1 mM) in the presence of xylenol orange indicator (10 μM) and sodium acetate buffer (pH 6.0, 10 mM). 500 μL of the 1 mM Tb^3+ stock solution was diluted to 1 mL to make a 0.5 mM solution and EDTA (1 mM) was added (approximately 500 μL) until the end point was reached (see FIGS. 11-13). The solutions were prepared as serial dilutions of Tb^3+, from 3.3 μM to 450 μM Tb^3+, and the fluorescence emission scan of each solution was acquired. Data points at the emission maximum of 544 nm were plotted against Tb^3+ concentration to calculate the final Kd. Data points indicate the average of at least three independent titrations. Error bars indicate standard error. The data were fit to equation (1) using a non-linear least squares fitting algorithm (KaleidaGraph version 3.6, Synergy Software), where Q fluorescence, Qo=fluorescence of the apopeptide, Qc=fluorescence of peptide-metal complex, Mt=total metal concentration, Kd=dissociation constant and Pt=total peptide concentration (10 μM). Dissociation constants in the presence of 2 mM Mg^2+ or 100 μM Ca^2+ were measured for pKID-PKA peptides to study the effect of these metals on Tb^3+-peptide complex formation.
Dissociation constants of the non-phosphorylated peptides were calculated by defining the maximum fluorescence of the non-phosphorylated peptide-Tb^3+ complex as equal to the maximum fluorescence of the phosphorylated peptide-Tb^3+ complex: Qc (non-phosphorylated peptide)=Qc (phosphorylated peptide), with Qc=the calculated fluorescence of the fully bonded phosphopeptide-Tb^3+ complex. Although the assumption of similar maximum fluorescence intensities of the Tb^3+ complexes of the non-phosphorylated and phosphorylated peptides may not be valid, it provides a measure of relative Tb^3+ fluorescence of the phosphorylated and non-phosphorylated peptides.

The target of test [2] is T1, Protein Kinase A (PKA) (Mus musculus, UniProt P05132).
T1 construct: purchased New England Biolabs
In words: Phosphorylation of pKID peptides by protein kinase A (HPLC, fluorescence, ESI-MS). Format: biochemical. As to conditions: 200 μM peptide, 2.5 units PKA, 35° C., 12 hrs. The protocol:
Kinase specificity for protein kinase-inducible domain peptides was examined by incubation of protein kinase A with pKID-PKA, pKID-PKC and pKID-Erk. Experiments were conducted with 2.4 mM ATP (3 μL of freshly prepared 20 mM ATP), PKA buffer (3 μL of 10× buffer), and peptide (200 μM) with water in 25 μL final reaction volume. After incubation at 35° C. for 5 min, PKA enzyme solution (1 μL, 2.5 units) was added to start the reaction. After 12-14 hrs at 35° C., the reaction mixture was analyzed by fluorescence, HPLC and ESI-MS. The kinase reaction mixtures were analyzed by fluorescence by diluting the reaction mixture with 1 mL of a solution containing 5 mM HEPES buffer (pH 7.8), 100 mM NaCl, and 50 μM Tb^3+, and the resulting solution analyzed by fluorescence. Fluorescence experiments were conducted with 10 nm slit widths and a 495 nm highpass filter on the emission monochromator. Fluorescence data (FIG. 7) represent the average of four independent trials. Error bars indicate standard error.

Test [3] in a line: Ho^3+ competition experiment (reduction of Tb^3+ luminescence). As to conditions: 10 μM phosphorylated peptide, 10 μM Tb^3+, increasing Ho^3+. Format: binding. The protocol: Competition experiments were used to confirm site-specific lanthanide binding and to address whether pKID peptides are a general phosphorylation-dependent lanthanide-binding motif. In order to determine whether Tb^3+ binding is site-specific, competition experiments were performed with Ho^3+. Ho^3+ solutions were prepared from hydrates of the chloride salts in ultrapure water. The phosphorylated pKID-PKC peptide was tested for Ho^3+ binding by addition of aliquots of Ho^3+ to a solution containing 10 μM phosphorylated pKID-PKC and 10 μM Tb^3+. pKID-Tb^3+-Ho^3+ solutions were allowed to equilibrate for 2 minutes. Fluorescence experiments were conducted using a 495 nm highpass filter (model 495FG03-25 AM-53074; Andover Corporation, Andover, N.H.) on the emission monochromator and 8 nm slit widths.

In test [4] the target is T1, Protein Kinase A (PKA). In words: Phosphorylation of pKID-PKA by protein kinase A in HeLa nuclear extract. Type of test: biochemical. Conditions: HeLa nuclear extract with added PKA, 3 h incubation.
The test system of test [5] is endogenous kinase present within the HeLa extracts. In words: Phosphorylation of pKID-PKA in HeLa nuclear extract in the absence of added kinase. Type of test: biochemical. As to conditions: no added kinase. The protocol: Phosphorylation of pKID-PKA in HeLa nuclear extract in the absence of added kinase was also examined. Reaction mixtures were prepared as described previously to a final volume of 25 μL, but protein kinase A was not added. After addition of ATP and incubation for the indicated times, the reaction mixtures (25 μL, 500 μM peptide) were diluted with 200 μL of a solution containing […] buffer (pH 7.8), 100 mM NaCl and 100 μM Tb^3+ and analyzed by fluorescence as described previously. pKID-PKA was phosphorylated by endogenous kinase present within the HeLa extracts to approximately 10% conversion as determined by fluorescence and HPLC (see FIG. 5, right).

“Also recorded” adds a separate entry of the source. Like-named read-outs stand apart in the source and are kept apart here. Bounds are passed on as bounds.

For orientation: Kd means the equilibrium constant for the complex coming apart.

In the case of “Ac-DKNADGWIDAApSLK-NH2 (DKNADGWIDAASLK; HELM PEPTIDE1{[ac].D.K.N.A.D.G.W.I.D.A.A.[O=C([C@H](COP(=O)(O)O)N[*:1])[*:2]].L.K.[am]}$$$$V2.0; SMILES CC[C@H](C)[C@H](NC(=O)[C@H](Cc1c[nH]c2ccccc12)NC(=O)CNC(=O)[C@H](CC(=O)O)NC(=O)[C@H](C)NC(=O)[C@H](CC(N)=O)NC(=O)[C@H](CCCCN)NC(=O)[C@H](CC(=O)O)NC(C)=O)C(=O)N[C@@H](CC(=O)O)C(=O)N[C@@H](C)C(=O)N[C@@H](C)C(=O)N[C@@H](COP(=O)(O)O)C(=O)N[C@@H](CC(C)C)C(=O)N[C@@H](CCCCN)C(N)=O) [phosphorylated pKID-PKC]”, in test [1] (10 μM peptide), the Kd came to 216 µM.

As to “Ac-DKNADGWIDAApSPA-NH2 (DKNADGWIDAASPA; HELM PEPTIDE1{[ac].D.K.N.A.D.G.W.I.D.A.A.[O=C([C@H](COP(=O)(O)O)N[*:1])[*:2]].P.A.[am]}$$$$V2.0; SMILES CC[C@H](C)[C@H](NC(=O)[C@H](Cc1c[nH]c2ccccc12)NC(=O)CNC(=O)[C@H](CC(=O)O)NC(=O)[C@H](C)NC(=O)[C@H](CC(N)=O)NC(=O)[C@H](CCCCN)NC(=O)[C@H](CC(=O)O)NC(C)=O)C(=O)N[C@@H](CC(=O)O)C(=O)N[C@@H](C)C(=O)N[C@@H](C)C(=O)N[C@@H](COP(=O)(O)O)C(=O)N1CCC[C@H]1C(=O)N[C@@H](C)C(N)=O) [phosphorylated pKID-Erk]”, the Kd in test [1] (10 μM peptide) worked out at 124 µM.

Take “Ac-DKNADGWIDRApSLA-NH2 (DKNADGWIDRASLA; HELM PEPTIDE1{[ac].D.K.N.A.D.G.W.I.D.R.A.[O=C([C@H](COP(=O)(O)O)N[*:1])[*:2]].L.A.[am]}$$$$V2.0; SMILES CC[C@H](C)[C@H](NC(=O)[C@H](Cc1c[nH]c2ccccc12)NC(=O)CNC(=O)[C@H](CC(=O)O)NC(=O)[C@H](C)NC(=O)[C@H](CC(N)=O)NC(=O)[C@H](CCCCN)NC(=O)[C@H](CC(=O)O)NC(C)=O)C(=O)N[C@@H](CC(=O)O)C(=O)N[C@@H](CCCNC(=N)N)C(=O)N[C@@H](C)C(=O)N[C@@H](COP(=O)(O)O)C(=O)N[C@@H](CC(C)C)C(=O)N[C@@H](C)C(N)=O) [phosphorylated pKID-PKA]”: the “change of dissociation constant of phosphopeptide-Tb^3+ complex in the presence of Ca^2+” value in test [1] (100 μM Ca^2+) was “did not significantly change”. For the same substance, the Kd in test [1] (10 μM peptide) was 220 µM; in test [1] (+ 100 μM Ca^2+), 228 µM; in test [1] (+ 2 mM Mg^2+), 174 µM.

Turning to “DKNADGWIDAASLK [non-phosphorylated pKID-PKC, Ac-DKNADGWIDAASLK-NH2, EF hand domain with Glu12 replaced by serine and a protein kinase C recognition domain]”, the Kd in test [1] (10 μM peptide) is > 6000 µM. Further, at Protein Kinase A (PKA) [2], the “phosphorylation by PKA (result in words), determined by HPLC” value is recorded as “no evidence of phosphorylation; also recorded: not phosphorylated”. Moreover, the “Ho^3+ binding observed via Tb^3+ luminescence” value in test [3] is recorded as “loss of Tb^3+ luminescence”.

With “DKNADGWIDAASPA [non-phosphorylated pKID-Erk, Ac-DKNADGWIDAASPA-NH2, EF hand domain with Glu12 replaced by serine and an Erk recognition domain]”, the Kd in test [1] (10 μM peptide) is > 3000 µM. At Protein Kinase A (PKA) [2], the “phosphorylation by PKA (result in words), determined by HPLC” value is reported as “no evidence of phosphorylation; also recorded: not phosphorylated”.

“DKNADGWIDRASLA [non-phosphorylated pKID-PKA, Ac-DKNADGWIDRASLA-NH2, EF hand domain with Glu12 replaced by serine and a protein kinase A recognition domain]”: in test [1] (2 mM Mg^2+), the “Tb^3+ binding in the presence of Mg^2+” value is “not observed”. Further, the Kd in test [1] (10 μM peptide) and in test [1] (+ 2 mM Mg^2+) was > 5000 µM each time. For the same substance, on Protein Kinase A (PKA) [2], the “conversion to phosphorylated peptide by PKA, determined by HPLC” value was > 95%. Moreover, the “phosphorylation conversion measured by HPLC” value at Protein Kinase A (PKA) [4] is 75%. Besides, the “phosphorylation conversion determined by fluorescence and HPLC” value in test [5] is on record as “approximately 10%”.

These data come from patent US8003759B2, “Protein kinase-inducible domains” (University of Delaware, priority 2006, dated 2011).
